Columns and labels:
Assay in all cases: relative viability (nuclei count vs DMSO), 5 days (fraction); higher = more cells survive
HCC-44 = test system: HCC-44
How it was run: (§1)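 For relative viability, nuclei counts in treated wells were divided by those in vehicle wells. Lung cancer cell lines had been pin-tool dosed in 1536-well plates the day after seeding and cultured for 5 days, then fixed and stained in one step (final 0.05% Triton X-100, 1% formaldehyde, 1 ug/ml Hoechst) and imaged at 4×. Doses were one drug alone or a fixed anchor-drug dose plus five library-drug doses (not always all listed) in √10 steps, and values are duplicate-plate medians.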

NCI-H650 = test system: NCI-H650
How it was run: as §1

HCC-15 = test system: HCC-15
How it was run: as §1

NCI-H1437 = test system: NCI-H1437
How it was run: as §1

A-427 = test system: A-427
How it was run: as §1

BEN = test system: BEN
How it was run: as §1

SW 900 = test system: SW 900
How it was run: as §1

SK-MES-1 = test system: SK-MES-1
How it was run: as §1

HARA = test system: HARA
How it was run: as §1

NCI-H1792 = test system: NCI-H1792
How it was run: as §1

EKVX = test system: EKVX
How it was run: as §1

NCI-H358 = test system: NCI-H358
How it was run: as §1

HCC-827 = test system: HCC-827
How it was run: as §1

NCI-H23 = test system: NCI-H23
How it was run: as §1

201T = test system: 201T
How it was run: as §1

NCI-H1975 = test system: NCI-H1975
How it was run: as §1

COR-L23 = test system: COR-L23
How it was run: as §1

NCI-H441 = test system: NCI-H441
How it was run: as §1

NCI-H1650 = test system: NCI-H1650
How it was run: as §1

NCI-H596 = test system: NCI-H596
How it was run: as §1

NCI-H2342 = test system: NCI-H2342
How it was run: as §1

NCI-H838 = test system: NCI-H838
How it was run: as §1

Work on CC(=O)O[C@@]12CO[C@@H]1C[C@H](O)[C@@]1(C)C(=O)[C@H](O)C3=C(C)[C@@H](OC(=O)[C@H](O)[C@@H](NC(=O)OC(C)(C)C)c4ccccc4)C[C@@](O)([C@@H](OC(=O)c4ccccc4)[C@H]21)C3(C)C [Docetaxel] + COc1cccc2cc(-c3nc([C@H]4CC[C@H](C(=O)O)CC4)n4ncnc(N)c34)[nH]c12 [OSI-027] (partner 0.5 µM) yielded a relative viability (HCC-44; first compound 0.0002 µM) of 0.533, a relative viability (HCC-44; first compound 0.000632 µM) of 0.591 and a relative viability (HCC-44; first compound 0.002 µM) of 0.269. It also gave a relative viability (HCC-44; first compound 0.006325 µM) of 0.294, a relative viability (HCC-44; first compound 0.02 µM) of 0.16 and a relative viability (NCI-H650; first compound 0.0002 µM) of 0.436. For the same compound, the relative viability (NCI-H650; first compound 0.000632 µM) was 0.375, the relative viability (NCI-H650; first compound 0.002 µM) was 0.266 and the relative viability (NCI-H650; first compound 0.006325 µM) was 0.265. For the same compound, the relative viability (NCI-H650; first compound 0.02 µM) was 0.181, the relative viability (HCC-15; first compound 0.0002 µM) was 0.542 and the relative viability (HCC-15; first compound 0.000632 µM) was 0.246. It also gave a relative viability (HCC-15; first compound 0.002 µM) of 0.205, a relative viability (HCC-15; first compound 0.006325 µM) of 0.219 and a relative viability (HCC-15; first compound 0.02 µM) of 0.133. The relative viability (NCI-H1437; first compound 0.0002 µM) was 0.767, the relative viability (NCI-H1437; first compound 0.000632 µM) was 0.861 and the relative viability (NCI-H1437; first compound 0.002 µM) was 0.311. It also gave a relative viability (NCI-H1437; first compound 0.006325 µM) of 0.162, a relative viability (NCI-H1437; first compound 0.02 µM) of 0.114 and a relative viability (A-427; first compound 0.0002 µM) of 0.465. It also gave a relative viability (A-427; first compound 0.000632 µM) of 0.435, a relative viability (A-427; first compound 0.002 µM) of 0.224 and a relative viability (A-427; first compound 0.006325 µM) of 0.235. It also gave a relative viability (A-427; first compound 0.02 µM) of 0.155, a relative viability (BEN; first compound 0.0002 µM) of 0.283 and a relative viability (BEN; first compound 0.000632 µM) of 0.285. The relative viability (BEN; first compound 0.002 µM) was 0.241, the relative viability (BEN; first compound 0.006325 µM) was 0.181 and the relative viability (BEN; first compound 0.02 µM) was 0.165. The relative viability (SW 900; first compound 0.0002 µM) was 0.298, the relative viability (SW 900; first compound 0.000632 µM) was 0.245 and the relative viability (SW 900; first compound 0.002 µM) was 0.177. For the same compound, the relative viability (SW 900; first compound 0.006325 µM) was 0.18, the relative viability (SW 900; first compound 0.02 µM) was 0.109 and the relative viability (SK-MES-1; first compound 0.0002 µM) was 0.621. The relative viability (SK-MES-1; first compound 0.000632 µM) was 0.506, the relative viability (SK-MES-1; first compound 0.002 µM) was 0.276 and the relative viability (SK-MES-1; first compound 0.006325 µM) was 0.22. For the same compound, the relative viability (SK-MES-1; first compound 0.02 µM) was 0.112, the relative viability (HARA; first compound 0.0002 µM) was 0.341 and the relative viability (HARA; first compound 0.000632 µM) was 0.159. It also gave a relative viability (HARA; first compound 0.002 µM) of 0.0997, a relative viability (HARA; first compound 0.006325 µM) of 0.106 and a relative viability (HARA; first compound 0.02 µM) of 0.0539. The relative viability (NCI-H1792; first compound 0.0002 µM) was 0.673, the relative viability (NCI-H1792; first compound 0.000632 µM) was 0.699 and the relative viability (NCI-H1792; first compound 0.002 µM) was 0.545. It also gave a relative viability (NCI-H1792; first compound 0.006325 µM) of 0.409, a relative viability (NCI-H1792; first compound 0.02 µM) of 0.186 and a relative viability (EKVX; first compound 0.0002 µM) of 0.672. The relative viability (EKVX; first compound 0.000632 µM) was 0.607, the relative viability (EKVX; first compound 0.002 µM) was 0.35 and the relative viability (EKVX; first compound 0.006325 µM) was 0.272. For the same compound, the relative viability (EKVX; first compound 0.02 µM) was 0.128, the relative viability (NCI-H358; first compound 0.0002 µM) was 0.738 and the relative viability (NCI-H358; first compound 0.000632 µM) was 0.23. The relative viability (NCI-H358; first compound 0.006325 µM) was 0.0795, the relative viability (NCI-H358; first compound 0.02 µM) was 0.0599 and the relative viability (HCC-827; first compound 0.0002 µM) was 0.783. The relative viability (HCC-827; first compound 0.000632 µM) was 0.848, the relative viability (HCC-827; first compound 0.002 µM) was 0.52 and the relative viability (HCC-827; first compound 0.006325 µM) was 0.226. For the same compound, the relative viability (HCC-827; first compound 0.02 µM) was 0.169, the relative viability (NCI-H23; first compound 0.0002 µM) was 0.804 and the relative viability (NCI-H23; first compound 0.000632 µM) was 0.587. The relative viability (NCI-H23; first compound 0.002 µM) was 0.238, the relative viability (NCI-H23; first compound 0.006325 µM) was 0.168 and the relative viability (NCI-H23; first compound 0.02 µM) was 0.107. It also gave a relative viability (201T; first compound 0.0002 µM) of 0.528, a relative viability (201T; first compound 0.000632 µM) of 0.442 and a relative viability (201T; first compound 0.002 µM) of 0.258. It also gave a relative viability (201T; first compound 0.006325 µM) of 0.132, a relative viability (201T; first compound 0.02 µM) of 0.0963 and a relative viability (NCI-H1975; first compound 0.0002 µM) of 0.66. For the same compound, the relative viability (NCI-H1975; first compound 0.000632 µM) was 0.479, the relative viability (NCI-H1975; first compound 0.002 µM) was 0.217 and the relative viability (NCI-H1975; first compound 0.006325 µM) was 0.16. It also gave a relative viability (NCI-H1975; first compound 0.02 µM) of 0.11, a relative viability (COR-L23; first compound 0.0002 µM) of 0.715 and a relative viability (COR-L23; first compound 0.000632 µM) of 0.689. For the same compound, the relative viability (COR-L23; first compound 0.002 µM) was 0.444, the relative viability (COR-L23; first compound 0.006325 µM) was 0.147 and the relative viability (COR-L23; first compound 0.02 µM) was 0.116. The relative viability (NCI-H441; first compound 0.0002 µM) was 0.654, the relative viability (NCI-H441; first compound 0.000632 µM) was 0.364 and the relative viability (NCI-H441; first compound 0.002 µM) was 0.33. The relative viability (NCI-H441; first compound 0.006325 µM) was 0.288, the relative viability (NCI-H441; first compound 0.02 µM) was 0.235 and the relative viability (NCI-H1650; first compound 0.0002 µM) was 0.473. For the same compound, the relative viability (NCI-H1650; first compound 0.000632 µM) was 0.301, the relative viability (NCI-H1650; first compound 0.006325 µM) was 0.188 and the relative viability (NCI-H1650; first compound 0.02 µM) was 0.115. The relative viability (NCI-H596; first compound 0.0002 µM) was 0.805, the relative viability (NCI-H596; first compound 0.000632 µM) was 0.767 and the relative viability (NCI-H596; first compound 0.002 µM) was 0.505. It also gave a relative viability (NCI-H596; first compound 0.006325 µM) of 0.372, a relative viability (NCI-H596; first compound 0.02 µM) of 0.241 and a relative viability (NCI-H2342; first compound 0.0002 µM) of 0.592. The relative viability (NCI-H2342; first compound 0.000632 µM) was 0.609, the relative viability (NCI-H2342; first compound 0.002 µM) was 0.502 and the relative viability (NCI-H2342; first compound 0.006325 µM) was 0.46. The relative viability (NCI-H2342; first compound 0.02 µM) was 0.423, the relative viability (NCI-H838; first compound 0.0002 µM) was 0.331 and the relative viability (NCI-H838; first compound 0.000632 µM) was 0.422. For the same compound, the relative viability (NCI-H838; first compound 0.002 µM) was 0.259, the relative viability (NCI-H838; first compound 0.006325 µM) was 0.16 and the relative viability (NCI-H838; first compound 0.02 µM) was 0.134.
